Source: patent US9764046B2, “Labeling composition for intraocular tissue, labeling method of intraocular tissue, and screening method” (CANON KABUSHIKI KAISHA, priority 2008, dated 2017)

Key:
[1] = Excitation and fluorescence wavelengths by fluorescence spectrometer FL4500; type: physicochemical; conditions: in nm (unit assumed)
[2] = system: photoreceptor cell layer in tissue section of the Zebrafish eyeball; assay: Stained slide of frozen tissue section of Zebrafish eyeball, co-staining with anti-Zpr-1 or anti-Zpr-3 antibody
Description: After an eyeball of a fry of Zebrafish 7-day-old embryo (7 dpf) was immobilized with a PBS solution of 4% paraformaldehyde (PFA), the solution was replaced by a PBS solution of 30% sucrose, and the eyeball was embedded in an OCT compound (product of Tissue-Tek Co.) and frozen with liquid nitrogen. The frozen sample was sliced into a 7-1 μm section by Cryostat (Tissue•Tek Cryo 3, manufactured by Sakura Finetek Japan Co., Ltd.) and extended on a MAS-coated slide glass (product of […] GLASS IND., LTD) to obtain a tissue section slide of the Zebrafish eyeball. The slide glass was treated with a blocking solution (Blocking One, product of Nakarai Co.) for 30 minutes at room temperature, and an anti-Zpr-1 antibody (which stains red and green cone cells) diluted with PBS was mounted as a primary antibody on the slide glass and treated for 12 hours at 4° C. The slide glass was then washed 3 times with PBST for 10 minutes, and a secondary antibody (Alexa 488-anti-mouse IgG antibody) and 1 μg/mL of Compound 5 were diluted with PBS and mounted on the slide glass for 1 hour at room temperature. The slide glass was washed 3 times with PBST for 10 minutes, Fluoromount G (product of Southem Biotechnology Co.) was mounted thereon, and a cover glass was placed thereon. The thus-obtained stained slide of the tissue section of the Zebrafish eye ball was observed through a confocal microscope.
A stained slide of a tissue section of a Zebrafish eye ball was prepared according to the same process as in Example 120 except that the primary antibody used in Example 120 was changed to an anti-Zpr-3 antibody (which stains rod cells), and observed through a confocal microscope.

[3] = system: intraocular tissue (retinal tissue incl. photoreceptor cell layer, vitreous body) of Zebrafish 7-day-old embryo; assay: Staining of intraocular tissue of Zebrafish fry by exposure to staining liquid, ocular tissue section observed by confocal microscope; type: in vivo; conditions: Zebrafish 7 dpf fry, 1 μg/mL, 1 hour exposure, fixed ocular section
[4] = system: fundus (retina) of Zebrafish fry; assay: In vivo intraocular observation of the fundus of living Zebrafish fry by confocal microscope; conditions: 1 μg/mL, 1 hour exposure;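 note: +++ photoreceptor and inner retinal layers stained ++ mainly photoreceptor layer − none seen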
Experimental: In an arbitrary well of a 24-well multiplate, were put 1 mL of Staining Liquid 2 and a fry of Zebrafish, and the plate was left to stand for 1 hour. A process of removing Staining Liquid 2 in the well and replacing it by 1 mL of distilled water was then performed 3 times.
The fry was then put in a 0.7% agarose solution and placed on a slide glass to observe the fundus of the fry through a confocal microscope.

retina of B10 mouse = assay: Staining of mouse intraocular tissue after administration to the abdominal cavity; type: in vivo; conditions: 3-month-old B10 mouse, 0.2 mL of 10 mg/mL supernatant to abdominal cavity, eyeball taken after 1 hour
Experimental: Staining compound 81 was added to an equimolar amount of a NaOH solution so as to give a concentration of 10 mg/mL, and the resultant mixture was centrifuged for 5 minutes at 14 krpm to obtain a supernatant. To an abdominal cavity of a 3-month-old B10 mouse, was administered 0.2 mL of this supernatant at one time. After 1 hour, the thus-treated animal was sacrificed under anesthesia by diethyl ether, and an eyeball thereof was taken out. The eyeball taken was embedded in an OCT compound and frozen in isopentane chilled with liquid nitrogen. This eyeball was sliced into a thickness of about 5 μm in a cryostat chilled to −20° C., and this slice was placed on a slide glass and dried to prepare a section of an ocular tissue. The thus-prepared ocular tissue section was observed through a confocal microscope (Pascal Exciter, manufactured by Zeiss Co.).

[5] = aqueous solution: 10 mg/mL DMSO solution diluted to 1/500 with purified water (Examples 1 to 94)
[6] = Comparative Examples, solvent not stated

| λem (fluorescence wavelength) [1, 5] | λex (excitation wavelength) [1, 5] | λem (fluorescence wavelength) [1, 6] | λex (excitation wavelength) [1, 6] | SMILES | Overlap of stained images with anti-Zpr-1 antibody (red and green cone cells) in the photoreceptor cell layer ([2]; Example 120, 1 μg/mL on frozen section) | Overlap of stained images with anti-Zpr-3 antibody (rod cells) in the photoreceptor cell layer ([2]; Example 121, 1 μg/mL on frozen section) | Selectivity of staining within the photoreceptor cell layer ([2]; Examples 120 and 121) | Staining of photoreceptor cell layer and of red and green cone cells ([2]; conclusion from Example 120) | Cell types stained in the photoreceptor cell layer ([2]; conclusion from Example 121) | Staining ability [3] | Result of observation (staining ability, in vivo fundus) [4] | Staining ability to the retina (retina of B10 mouse) |
| --- | --- | --- | --- | --- | --- | --- | --- | --- | --- | --- | --- | --- |
| 577 | 556 |  |  | CCN(CC)c1ccc2cc3c(oc2c1)c(C#N)c(=N)n1c2ccccc2nc31 [Compound 5] | did not overlap | partially overlapped | selectively stains a part of the cell types in the photoreceptor cell layer or of the cell bodies existing in the photoreceptor cell layer | has staining ability to the photoreceptor cell layer but does not stain the red and green cone cells in the photoreceptor cell layer | has stained the rod cells and at least one kind of cell type of blue or ultraviolet cone cells | +++ | +++ |  |
| 576 | 555 |  |  | CCN(CC)c1ccc2cc3c(oc2c1)c(C#N)c(=O)n1c2ccccc2nc31 [Compound 6] |  |  |  |  |  | ++ | ++ |  |
| 555 | 469 |  |  | CCN(CC)c1ccc2cc(-c3nc4ccccc4s3)c(=O)oc2c1 [Compound 7] |  |  |  |  |  | ++ | +++ |  |
| 592 | 477 |  |  | CC1(C)CCN2CCC(C)(C)c3c2c1cc1cc(-c2nc4ccccc4s2)c(=O)oc31 [Compound 8] |  |  |  |  |  | ++ | +++ |  |
| 514 | 464 |  |  | CCN(CC)c1ccc2cc(-c3nc4ccccc4[nH]3)c(=O)oc2c1 [Compound 9] |  |  |  |  |  | ++ | ++ |  |
| 476 | 422 |  |  | CCN(CC)c1ccc2cc(-c3nc4cc(Cl)ccc4o3)c(=O)oc2c1 [Compound 11] |  |  |  |  |  | +++ | +++ |  |
| 509 | 463 |  |  | CCCN(CCC)c1ccc2cc(-c3nc4ccccc4[nH]3)c(=O)oc2c1 [Compound 12] |  |  |  |  |  | ++ | ++ |  |
| 504 | 472 |  |  | CCN(CC)c1ccc2cc(-c3nc4ccc(C)cc4o3)c(=O)oc2c1 [Compound 13] |  |  |  |  |  | +++ | +++ |  |
| 661 | 566 |  |  | COc1ccc2cc(N3c4ccc(/C=C5\SC(=S)N(CC(=O)O)C5=O)cc4[C@@H]4CCC[C@@H]43)ccc2c1 [Compound 36] |  |  |  |  |  | +++ | ++ |  |
| 619 | 541 |  |  | O=C(O)CCN1C(=O)/C(=C\c2ccc3c(c2)C2CCCC2N3c2ccccc2)SC1=S (stereo not drawn) [Compound 48] |  |  |  |  |  | ++ | ++ |  |
| 636 | 527 |  |  | CSc1ccc(N2c3ccc(/C=C4/SC(=S)N(CC(=O)O)C4=O)cc3C3CCCC32)cc1 (stereo not drawn) [Compound 66] |  |  |  |  |  | +++ | ++ |  |
| 604 | 576 |  |  | CCN1c2ccc(/C=C3/SC(=S)N(CCC(=O)O)C3=O)cc2C2CCCC21 (stereo not drawn) [Compound 81] |  |  |  |  |  | ++ | +++ | has staining ability to the retina |
|  |  |  |  | O=C1OC2(c3ccc(O)cc3Oc3cc(O)ccc32)c2ccccc21 [Fluorescein, fluorescein, reference compound] |  |  |  |  |  | − | − |  |
|  |  | 811 | 784 | CC1(C)C(/C=C/C=C/C=C/C=C2\N(CCCCS(=O)(=O)O)c3ccc4ccccc4c3C2(C)C)=[N+](CCCCS(=O)(=O)[O-])c2ccc3ccccc3c21 [ICG, indocyanine green, reference compound] |  |  |  |  |  | − | − |  |
